# In patent publication EP3057951B1, “METHYLENE LINKED QUINOLINYL MODULATORS OF ROR-GAMMA-T” (Janssen Pharmaceutica NV, priority 2013, dated 2015):
# Counter-ions that a name gives are not always drawn.
# Biological target: T1, wild type human RORγt ligand binding domain (RORyt LBD) (Homo sapiens, UniProt P51449)
# T1 construct: His-tag (N); TurboTEV protease cleavage site (ENLYFQG) (N); made in house; host or cells: E. coli (pHIS1, modified pET vector)
# T1 sequence (P51449 258-518): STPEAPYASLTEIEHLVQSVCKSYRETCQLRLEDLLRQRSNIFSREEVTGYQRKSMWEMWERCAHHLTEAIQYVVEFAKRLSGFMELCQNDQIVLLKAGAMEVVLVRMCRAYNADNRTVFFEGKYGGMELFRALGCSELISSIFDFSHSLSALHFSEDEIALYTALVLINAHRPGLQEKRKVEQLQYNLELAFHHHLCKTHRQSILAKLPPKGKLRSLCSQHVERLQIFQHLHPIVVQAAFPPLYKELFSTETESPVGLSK
# Experiment: RORγt ThermoFluor assay (thermal shift, binding affinity KD)
# Settings: not given
row,SMILES,Kd [nM]
1,"CCc1nc2ccc(C(O)(c3cnc(C)n3C)C3CCOCC3)cc2c(Cl)c1Cc1ccc(C(F)(F)F)cc1 (single isomer, unassigned) [Example 34b, (4-Chloro-2-ethyl-3-(4-(trifluoromethyl)benzyl)quinolin-6-yl)(1,2-dimethyl-1H-imidazol-5-yl)(tetrahydro-2H-pyran-4-yl)methanol]",0.03
2,"CC(=O)N1CC(C(O)(c2ccc3nc(C)c(Cc4ccc(C(F)(F)F)cc4)c(Cl)c3c2)c2cnnn2C)C1 (stereo not shown) [Example 32a, 1-(3-((4-Chloro-2-methyl-3-(4-(trifluoromethyl)benzyl)quinolin-6-yl)(hydroxy)(1-methyl-1H-1,2,3-triazol-5-yl)methyl)azetidin-1-yl)ethanone]",1.1
3,"COc1nc2ccc(C(O)(c3ccc(C)nc3C)c3cnc(C)n3C)cc2c(Cl)c1Cc1ccc(C(F)(F)F)nc1 (single isomer, unassigned) [Example 42c, (4-Chloro-2-methoxy-3-((6-(trifluoromethyl)pyridin-3-yl)methyl)quinolin-6-yl)(1,2-dimethyl-1H-imidazol-5-yl)(2,6-dimethylpyridin-3-yl)methanol]",0.18
4,"CC(=O)N1CC(C(O)(c2ccc3nc(C)c(Cc4ccc(C(F)(F)F)cc4)c(Cl)c3c2)c2cnnn2C)C1 (single isomer, unassigned) [Example 32c, 1-(3-((4-Chloro-2-methyl-3-(4-(trifluoromethyl)benzyl)quinolin-6-yl)(hydroxy)(1-methyl-1H-1,2,3-triazol-5-yl)methyl)azetidin-1-yl)ethanone]",1.3
5,"COc1nc2ccc(C(O)(c3cnc(C)n3C)c3cnc(C)n3C)cc2c(C#N)c1Cc1cccc(C(F)(F)F)c1 [Example 9, 6-(bis(1,2-Dimethyl-1H-imidazol-5-yl)(hydroxy)methyl)-2-methoxy-3-(3-(trifluoromethyl)benzyl)quinoline-4-carbonitrile•TFA]",0.055
6,"COc1nc2ccc(C(O)(c3cnc(C)n3C)c3cnc(C)n3C)cc2c(Cl)c1Cc1ccc(C(F)(F)F)nc1 [Example 45, (4-Chloro-2-methoxy-3-((6-(trifluoromethyl)pyridin-3-yl)methyl)quinolin-6-yl)bis(1,2-dimethyl-1H-imidazol-5-yl)methanol]",0.21

# Continued, values first:
row,Kd [nM],SMILES
1,0.48,"COc1nc2ccc(C(O)(c3c(C)noc3C)c3cnnn3C)cc2c(C#N)c1Cc1ccc(C(F)(F)F)cc1 (stereo not shown) [Example 94, 6-((3,5-Dimethylisoxazol-4-yl)(hydroxy)(1-methyl-1H-1,2,3-triazol-5-yl)methyl)-2-methoxy-3-(4-(trifluoromethyl)benzyl)quinoline-4-carbonitrile]"
2,2.5,"COc1nc2ccc(C(O)(c3ccc(C(F)(F)F)nc3)c3cnnn3C)cc2c(Cl)c1Cc1ccc(C(F)(F)F)cc1 (single isomer, unassigned) [Example 75c, (4-Chloro-2-methoxy-3-(4-(trifluoromethyl)benzyl)quinolin-6-yl)(1-methyl-1H-1,2,3-triazol-5-yl)(6-(trifluoromethyl)pyridin-3-yl)methanol]"
3,14,"CC(=O)N1CCC(C(O)(c2ccccc2)c2ccc3nc(C)c(Cc4ccc(C(F)(F)F)cc4)c(Cl)c3c2)CC1 (single isomer, unassigned) [Example 27c, 1-(4-((4-Chloro-2-methyl-3-(4-(trifluoromethyl)benzyl)quinolin-6-yl)(hydroxy)(phenyl)methyl)piperidin-1-yl)ethanone]"

# Biological target: T2, wild type human RORγt LBD (Homo sapiens, UniProt P51449)
# T2 construct: expressed in transfected cells; host or cells: HEK293T
# T2 sequence (P51449 258-518): T1 sequence (P51449 258-518)
# Experiment: RORγt (LBD) Reporter Assay (GAL4-luciferase, HEK293T cells)
# Assay type: cell-based
# Settings: 6 µM compound concentration; 6 µM
row,"RORγt (LBD) Reporter Assay, % inhibition @ 6 µM [%]",SMILES
1,81,"COc1nc2ccc(C(O)(c3cnnn3C)c3cnc(C)n3C)cc2c(Cl)c1Cc1ccc(F)cc1 (single isomer, unassigned) [Example 65c]"
2,94,"COc1nc2ccc(C(O)(c3ccc(C)nc3C)c3cnnn3C)cc2c(Cl)c1Cc1ccc(C(F)(F)F)nc1 (single isomer, unassigned) [Example 40c, (4-Chloro-2-methoxy-3-((6-(trifluoromethyl)pyridin-3-yl)methyl)quinolin-6-yl)(2,6-dimethylpyridin-3-yl)(1-methyl-1H-1,2,3-triazol-5-yl)methanol]"

# Same assay, conditions: 6 µM compound concentration; HEK293T cells; 6 µM
row,SMILES,"RORγt (LBD) Reporter Assay, % inhibition @ 6 µM [%]"
1,"COc1nc2ccc(C(N)(c3ccc(C(F)(F)F)nc3)c3cncn3C)cc2c(Cl)c1Cc1ccccc1 (single isomer, unassigned) [Example 120c, (3-Benzyl-4-chloro-2-methoxyquinolin-6-yl)(1-methyl-1H-imidazol-5-yl)(6-(trifluoromethyl)pyridin-3-yl)methanamine•TFA]",66
2,"COc1nc2ccc(C(O)(c3oc(C)nc3C)c3cnnn3C)cc2c(Cl)c1Cc1ccc(C(F)(F)F)cc1 (single isomer, unassigned) [Example 156c, (4-chloro-2-methoxy-3-(4-(trifluoromethyl)benzyl)quinolin-6-yl)(2,4-dimethylozazol-5-yl)(1-methyl-1H-1,2,3-triazol-5-yl)methanol]",99
3,"Cn1cncc1C(O)(c1ccc(C(F)(F)F)nc1)c1ccc2nc(-n3cccn3)c(Cc3ccccc3)c(C#N)c2c1 (single isomer, unassigned) [Example 114c, 3-Benzyl-6-(hydroxy(1-methyl-1H-imidazol-5-yl)(6-(trifluoromethyl)pyridin-3-yl)methyl)-2-(1H-pyrazol-1-yl)quinoline-4-carbonitrile•TFA]",71

# Next, values leading:
row,"RORγt (LBD) Reporter Assay, % inhibition @ 6 µM [%]",SMILES
1,101,"CNC(c1ccc2nc(OC)c(Cc3ccc(C(F)(F)F)cc3)c(Cl)c2c1)(c1ccc(C)nc1C)c1cnnn1C (single isomer, unassigned) [Example 121c, 1-(4-Chloro-2-methoxy-3-(4-(trifluoromethyl)benzyl)quinolin-6-yl)-1-(2,6-dimethylpyridin-3-yl)-N-methyl-1-(1-methyl-1H-1,2,3-triazol-5-yl)methanamine•TFA]"
2,27,"COc1nc2ccc(C(N)(c3ccc(C(F)(F)F)nc3)c3cncn3C)cc2c(Cl)c1Cc1ccccc1 (single isomer, unassigned) [Example 120b, (3-Benzyl-4-chloro-2-methoxyquinolin-6-yl)(1-methyl-1H-imidazol-5-yl)(6-(trifluoromethyl)pyridin-3-yl)methanamine•TFA]"

# Same assay, conditions: HEK293T cells
row,IC50 [nM],SMILES
1,140,"CCN(CC)c1nc2ccc(C(O)(c3ccc(Cl)cc3)c3cncn3C)cc2c(C#N)c1Cc1ccc(-n2cccn2)cc1 (single isomer, unassigned) [Example 154b, 3-(4-(1H-pyrazol-1-yl)benzyl)-6-((4-chlorophenyl)(hydroxy)(1-methyl-1H-imidazol-5-yl)methyl)-2-(diethylamino)quinoline4-carbonitrile]"

# Same assay, conditions: HEK293T cells; value after the comma with ∼, > or < could not be included in the average
row,IC50 [nM],SMILES
1,7.6,"COc1nc2ccc(C(O)(c3cnnn3C)c3cnc(C)n3C)cc2c(C#N)c1Cc1ccc(C(F)(F)F)nc1 (stereo not shown) [Example 44a, 6-((1,2-Dimethyl-1H-imidazol-5-yl)(hydroxy)(1-methyl-1H-1,2,3-triazol-5-yl)methyl)-2-methoxy-3-((6-(trifluoromethyl)pyridin-3-yl)methyl)quinoline-4-carbonitrile]"

# Same assay, conditions: HEK-293T, read-out: RORγt (LBD) Reporter Assay, % inhibition @ 6 µM, 6 µM compound concentration
row,SMILES,inhibition at 6 µM [%]
1,"COc1nc2ccc(C(O)(c3cnnn3C)c3cnc(C)n3C)cc2c(C#N)c1Cc1ccc(C(F)(F)F)nc1 (stereo not shown) [Example 44a, 6-((1,2-Dimethyl-1H-imidazol-5-yl)(hydroxy)(1-methyl-1H-1,2,3-triazol-5-yl)methyl)-2-methoxy-3-((6-(trifluoromethyl)pyridin-3-yl)methyl)quinoline-4-carbonitrile]",97
2,"COc1c(Cc2ccccc2)c(C(F)(F)F)nc2ccc(C(O)(c3ccc(Cl)cc3)c3cncn3C)cc12 (single isomer, unassigned) [Example 101b]",62

# Results, then the molecule that gave them:
row,inhibition at 6 µM [%],SMILES
1,88,"COc1nc2ccc(C(O)(c3ccc(C)nc3C)c3cnnn3C)cc2c(Cl)c1Cc1ccc(C(F)(F)F)nc1 (single isomer, unassigned) [Example 40b, (4-Chloro-2-methoxy-3-((6-(trifluoromethyl)pyridin-3-yl)methyl)quinolin-6-yl)(2,6-dimethylpyridin-3-yl)(1-methyl-1H-1,2,3-triazol-5-yl)methanol]"
2,103,"COc1nc2ccc(C(O)(c3ccccn3)c3cncn3C)cc2c(Cl)c1Cc1ccc(-n2cccn2)cc1 (single isomer, unassigned) [Example 64b, (3-(4-(1H-Pyrazol-1-yl)benzyl)-4-chloro-2-methoxyquinolin-6-yl)(1-methyl-1H-imidazol-5-yl)(pyridin-2-yl)methanol]"

# Same assay, conditions: HEK-293T, read-out: RORγt (LBD) Reporter Assay, % inhibition @ 6 µM, 6 µM compound concentration; HEK293T cells
row,inhibition at 6 µM [%],SMILES
1,90,"Cn1cncc1C(O)(c1ccc(C(F)(F)F)nc1)c1ccc2nc(-c3nccn3C)c(Cc3ccccc3)c(Cl)c2c1 (single isomer, unassigned) [Example 113c, (3-Benzyl-4-chloro-2-(1-methyl-1H-imidazol-2-yl)quinolin-6-yl)(1-methyl-1H-imidazol-5-yl)(6-(trifluoromethyl)pyridin-3-yl)methanol•TFA]"
2,67,"CC(=O)N1CCC(C(O)(c2ccc3nc(C(F)(F)F)c(Cc4ccccc4)c(Cl)c3c2)c2cncn2C)CC1 (single isomer, unassigned) [Example 115b, 1-(4-((3-Benzyl-4-chloro-2-(trifluoromethyl)quinolin-6-yl)(hydroxy)(1-methyl-1H-imidazol-5-yl)methyl)piperidin-1-yl)ethanone•TFA]"
3,86,"Cn1cncc1C(O)(c1ccc(C(F)(F)F)nc1)c1ccc2nc(-n3cccn3)c(Cc3ccccc3)c(C#N)c2c1 (single isomer, unassigned) [Example 114b, 3-Benzyl-6-(hydroxy(1-methyl-1H-imidazol-5-yl)(6-(trifluoromethyl)pyridin-3-yl)methyl)-2-(1H-pyrazol-1-yl)quinoline-4-carbonitrile•TFA]"
